# Reference: patent publication US12559750B2, “Methods and compositions for treatment of polycystic kidney disease” (Regulus Therapeutics Inc., priority 2021, dated 2026)
# Key:
# AMPA-R = experiment: [3H]AMPA radioligand binding assay on rat brain synaptic membranes;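 note: competition binding in which test compounds at rising concentrations displace [3H]AMPA from AMPA-R on rat brain synaptic membranes, with reduced bound radioligand as read-out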
# Protocol: The activity of anti-miR-17 compounds was evaluated in a radioligand binding assay which measured the binding of the [^3H] AMPA ligand to the AMPA-R present on rat brain synaptic membranes, in the presence of increasing concentrations of anti-miR-17 compound, anti-miR-17 compounds with affinity for the AMPA-R will bind to and compete with the binding of the [^3H] AMPA ligand.
# 5.0 nM of the ligand [^3H] AMPA, 1.0 mM of the non-specific ligand L-Glutamic acid, and anti-miR compound at uM concentrations were incubated with synaptic membranes prepared from Wistar rat cerebral cortex for 90 minutes.
# The compounds were tested in the radioligand binding assay described herein, to determine the ability of the anti-miR-17 compounds to and compete with the binding of the [3H] AMPA ligand.
# AMPA-R (GluA1/GluA4) = molecular target: T1, AMPA-R (GluA1/GluA4) (Homo sapiens, UniProt P42261+P48058); experiment: Manual whole-cell patch clamp, ChanTest GluA1/GluA4 EZCells; format: cell-based
# T1 construct: host or cells: ChanTest GluA1/GluA4 EZCells
# T1 sequence (P42261 19-906): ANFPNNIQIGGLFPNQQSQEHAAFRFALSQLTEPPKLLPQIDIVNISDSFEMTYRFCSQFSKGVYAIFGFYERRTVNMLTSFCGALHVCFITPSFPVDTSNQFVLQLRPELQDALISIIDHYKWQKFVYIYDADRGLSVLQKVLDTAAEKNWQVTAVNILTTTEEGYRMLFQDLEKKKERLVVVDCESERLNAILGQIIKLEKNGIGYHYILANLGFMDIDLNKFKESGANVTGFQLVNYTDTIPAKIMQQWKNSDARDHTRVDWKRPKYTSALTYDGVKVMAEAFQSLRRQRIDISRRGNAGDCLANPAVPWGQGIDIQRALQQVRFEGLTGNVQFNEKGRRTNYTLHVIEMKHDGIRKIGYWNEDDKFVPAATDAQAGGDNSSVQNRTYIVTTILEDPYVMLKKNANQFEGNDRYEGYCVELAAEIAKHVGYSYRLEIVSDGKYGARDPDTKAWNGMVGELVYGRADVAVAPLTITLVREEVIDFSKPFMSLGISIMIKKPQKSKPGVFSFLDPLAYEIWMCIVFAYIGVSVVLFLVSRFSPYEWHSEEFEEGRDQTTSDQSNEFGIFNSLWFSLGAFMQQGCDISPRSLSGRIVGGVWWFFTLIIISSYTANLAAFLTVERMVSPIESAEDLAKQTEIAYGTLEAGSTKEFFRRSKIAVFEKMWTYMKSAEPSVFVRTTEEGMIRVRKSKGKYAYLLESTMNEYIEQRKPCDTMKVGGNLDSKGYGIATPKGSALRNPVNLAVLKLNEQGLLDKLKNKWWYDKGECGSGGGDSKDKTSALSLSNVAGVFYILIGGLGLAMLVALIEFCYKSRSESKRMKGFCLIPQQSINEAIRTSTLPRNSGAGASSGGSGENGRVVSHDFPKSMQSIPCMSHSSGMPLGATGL
# T1 sequence (P48058 21-902): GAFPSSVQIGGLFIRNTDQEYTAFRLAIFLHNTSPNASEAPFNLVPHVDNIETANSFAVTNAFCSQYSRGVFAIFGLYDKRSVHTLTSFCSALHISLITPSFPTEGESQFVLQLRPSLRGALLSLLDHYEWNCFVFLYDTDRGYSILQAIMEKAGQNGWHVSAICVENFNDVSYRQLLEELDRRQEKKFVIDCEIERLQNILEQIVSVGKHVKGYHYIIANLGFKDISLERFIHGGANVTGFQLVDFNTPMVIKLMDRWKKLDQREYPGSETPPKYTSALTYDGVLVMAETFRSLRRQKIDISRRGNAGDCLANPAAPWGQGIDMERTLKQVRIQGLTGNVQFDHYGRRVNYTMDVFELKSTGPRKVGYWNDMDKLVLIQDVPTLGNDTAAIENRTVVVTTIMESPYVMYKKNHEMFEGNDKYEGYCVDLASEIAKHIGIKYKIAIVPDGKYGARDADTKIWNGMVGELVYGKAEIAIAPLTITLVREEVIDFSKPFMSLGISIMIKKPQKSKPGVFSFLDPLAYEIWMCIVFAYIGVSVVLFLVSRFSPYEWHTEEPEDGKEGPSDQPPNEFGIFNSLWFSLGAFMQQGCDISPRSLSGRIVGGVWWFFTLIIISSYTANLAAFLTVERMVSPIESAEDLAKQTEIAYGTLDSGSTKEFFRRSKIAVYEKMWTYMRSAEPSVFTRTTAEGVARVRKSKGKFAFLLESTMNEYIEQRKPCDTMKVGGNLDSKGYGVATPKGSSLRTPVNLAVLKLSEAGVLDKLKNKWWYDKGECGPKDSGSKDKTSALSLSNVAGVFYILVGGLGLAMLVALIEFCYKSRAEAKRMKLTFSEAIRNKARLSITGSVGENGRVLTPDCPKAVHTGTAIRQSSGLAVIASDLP
# Protocol: To evaluate functional antagonism of anti-miR-17 oligonucleotides towards the AMPA-R, certain oligonucleotides were tested using the manual whole-cell patch clamp technique, which records membrane currents as a measure of AMPA-R activity.
# Manual whole-cell patch clamp studies were performed by Metrion Biosciences (Cambridge, UK). Whole-cell voltage clamp experiments were performed at room temperature (18-21° C.) using an EPC10 patch clamp amplifier using Patchmaster software (HEKA Elektronik). Glass patch pipettes were fabricated from borosilicate glass capillaries (Harvard Apparatus) to resistances between 1.4 and 2.5 MΩ. Membrane currents were recorded using the whole-cell patch clamp technique. ChanTest® GluA1/GluA4 EZCells were clamped at a holding potential of −80 mV and membrane currents elicited by 10 μM(S)-AMPA delivered using a VC38 perfusion system (ALA Scientific Instruments). The […] current amplitude values were measured with each application of 10 μM(S)-AMPA. The fractional change of current amplitude produced by each concentration of compound was calculated relative to the control current (pre-compound) and expressed as percentage change (% inhibition) for each cell. RGLS4326 was tested in a separate study from all other compounds in Table 6.
# C57Bl/6J male mice = experiment: ICV maximum tolerated dose study, Study 1; format: in vivo, mouse; details: for Mortality/total number of mice: 7-day
# Protocol: Compounds (RG-NG-1017, RGLS4326, RG-NG-1001) were evaluated in a pilot maximum tolerated dose (MTD) study (discussed below). RG-NG-1017, RGLS4326 and RG-NG-1001 were initially evaluated at 4 dose-levels each. RG-NG-1017 was included for evaluation as a non-AMPA-R binding compound, as compared to RGLS4326 and RG-NG-1001, which bind AMPA-R. C57Bl/6J male mice (Jackson Laboratories), age 6-7 weeks, were used in this study. Mice were assigned randomly to treatment groups, and the study was blinded. Animals were allowed to acclimate for no less than 5 days and housed on a 12 hr light/dark cycle (lights on 7:00 AM). No more than 4 mice were house in each cage in a ventilated cage rack system. The diet consisted of standard rodent chow and water ad libitum.
# The following parameters were used for this study: • 1. Route(s) of administration: intracerebroventricular (ICV) dosing of RG-NG-1017, RG-NG-1001, RGLS4326 • 2. Dose Volume(s): 4 μL • 3. Formulation(s): vehicle, Ca^2+ and Mg^2+ free dPBS • 4. Dose Frequency: Once • 5. Study duration: 8 Days • 6. Number of Groups: 3 • 7. Number of animals per group: (2-4 each group) • 8. Total number of animals: […]
# For the ICV administration, mice were anesthetized and positioned for injections. The skin over the skull was incised, and a small hole was made in the skull above the target using a microdrill. The stereotactic coordinates were anteroposterior (AP), −0.4 mm; mediolateral (ML), +/−1.0-1.5 mm; dorsoventral (DV), −3.0 mm from the bregma for injection into both the right and left lateral cerebral ventricles (Hironaka et al, 2015). Animals were injected unilaterally with 4 μl into the right lateral cerebral ventricle. Compounds were injected over 1-2 min, and the needle was left in place for 0.5-1 min prior to withdrawal. The incision was closed with sutures, wound clips, or VetBond.
# Following ICV treatment (Day 0), animals were monitored for 7 days in which daily health checks, body weight, and mortality was recorded. On Day 7, brain and kidney were collected and fixed (10% formalin) and stored pending histology.
# miR-17 [1] = experiment: miR-17 luciferase sensor assay in HeLa cells; format: cell-based
# Protocol: The in vitro potency of certain compounds was evaluated using a miR-17 luciferase sensor assay which uses a luciferase reporter vector for miR-17, with two fully complementary miR-17 binding sites in tandem in the 3′-UTR of the luciferase gene. HeLa cells were co-transfected with the luciferase reporter vector and an exogenous miR-17-expression vector that acted to repress the luciferase signal.
# miR-17 [2] = experiment: miR-17 PD-Sig in mouse kidney cell lines; format: cell-based
# Protocol: The activity of certain compounds was evaluated using a mouse miR-17 Pharmacodynamic-Signature (miR-17 PD-Sig), which consists of the expression of 18 unique miR-17 target genes normalized by six reference housekeeping genes, to provide an unbiased and comprehensive assessment of miR-17 activity. The mouse miR-17 PD-Sig score was the calculated average of the 18 genes' individual log 2 fold changes (normalized by six housekeeping genes) compared to mock transfection (Lee et al., Nat. Commun., 2019, 10, 4148).
# The PD-Sig for RGLS4326 in mIMCD3 cells (77.2, indicated by “*”) was not generated in this experiment; the value in Table 14 is that reported by Lee et al., Nat. Commun., 2019, 10, 4148. Blank cells in the table indicate that a compound was not tested in a particular cell line.
# miR-17 [3] = experiment: miR-17 PD-Sig in human kidney cell lines; format: cell-based
# miR-17 [4] = experiment: microRNA polysome shift assay (miPSA) in kidney of wild type mice; format: in vivo, mouse; design: scale not given here; details: seven days later
# Protocol: In vivo potency was evaluated using the microRNA polysome shift assay (miPSA). This assay was used to determine the extent to which compounds directly engage the miR-17 target in the kidney in normal and PKD mice. The miPSA relies on the principle that active miRNAs bind to their mRNA targets in translationally active high molecular weight (HMW) polysomes, whereas the inhibited miRNAs reside in the low MW (LMW) polysomes. Treatment with anti-miR results in a shift of the microRNA from HMW polysomes to LMW polysomes. Thus, the miPSA provides a direct measurement of microRNA target engagement by a complementary anti-miR (Androsavich et al., Nucleic Acids Research, 2015, 44: e13).
# Wild type mice were administered a single dose of 0.3 mg/kg, 3 mg/kg, or 30 mg/kg. Kidney tissue was collected seven days later and subjected to the miPSA. The mean displacement score for each treatment is shown in Table 15 (PBS, n=17; RGLS4326 30 mg/kg, n=10; all other treatments, n=4-5). The tested oligonucleotides displaced miR-17 from translationally active polysome (as measured by miPSA) in normal mouse kidneys.
# mice = details: in vivo
# Protocol: Each compound was tested in a single dose at 2000 mg/kg, and at escalating doses (100, 450, and 2000 mg/kg).
sequence,measurement,setting,value
ASGSCMAFCFUFUMUSUS [RG-NG-1017],IC50,AMPA-R; Experiment #2,> 100000 nM
same,% Inhibition @ 0.1 uM,"AMPA-R; Experiment #2, 0.1 uM",0.2%
same,% Inhibition @ 1 uM,"AMPA-R; Experiment #2, 1 uM",−1.3%
same,% Inhibition @ 10 uM,"AMPA-R; Experiment #2, 10 uM",4.3%
same,% Inhibition @ 100 uM,"AMPA-R; Experiment #2, 100 uM",8.1%
same,% Inhibition on membrane currents evoked with 10 uM (s)-AMPA (Mean ± SD),AMPA-R (GluA1/GluA4); 0.3 uM compound,20.0 ± 6.3%
same,% Inhibition on membrane currents evoked with 10 uM (s)-AMPA (Mean ± SD),AMPA-R (GluA1/GluA4); 3 uM compound,28.2 ± 5.5%
same,functional antagonism towards AMPA-R relative to RGLS4326,AMPA-R (GluA1/GluA4); in words,reduced functional antagonism towards AMPA-R
same,MTD higher than that of RGLS4326,C57Bl/6J male mice; single ICV,> 40 fold
same,Mortality/total number of mice,C57Bl/6J male mice; single ICV 50 μg,0/2
same,Mortality/total number of mice,C57Bl/6J male mice; single ICV 100 μg,0/2
same,Mortality/total number of mice,C57Bl/6J male mice; single ICV 300 μg,1/2
same,Mortality/total number of mice,C57Bl/6J male mice; single ICV 600 μg,0/2
same,MTD,"C57Bl/6J male mice; single ICV, C57Bl/6J mice, predicted from the study",no established MTD
same,Log2FC (37.5 nM),miR-17 [1]; 37.5 nM,2.67
same,EC50,"miR-17 [1]; HeLa cells, 18- to 24-hour transfection",15 nM
same,EC50,"miR-17 [2]; D52B5, mouse, PKD",74.1 nM
same,EC50,"miR-17 [2]; mIMCD3, mouse, Normal",134 nM
same,EC50,"miR-17 [3]; HK-2, human, Normal",49.2 nM
same,EC50,"miR-17 [3]; WT9-7, human, PKD",20.1 nM
same,"miPSA Displacement Score, Mean",miR-17 [4]; single dose 3 mg/kg,2.292
same,"miPSA Displacement Score, Mean",miR-17 [4]; single dose 30 mg/kg,2.793
same,"miPSA Displacement Score, Mean",miR-17 [4]; single dose 0.3 m/kg,2.077
same,CNS toxicity in high-dose mouse toxicity studies,mice,no CNS-toxicity were observed
same,CNS-related findings noted,"mice; mouse, sc, 2000 mg/kg",No
